# Experiments:
# Type in all cases: in vivo, rat
# rats [1] = test: Active allothetic place avoidance (AAPA) task, compound applied alone; conditions: Example 9 1 and 10 mg/kg s.c., dizocilpine 0.1-0.3 mg/kg i.p.
# Description: The effect of compound from Example 9 on cognitive behaviors and locomotion was assessed using active allothetic place avoidance (AAPA) task, which requires intact hippocampi and ability of animals to navigate in space using distinct reference frames (spatial navigation and “cognitive coordination”) (Wesierska et al., 2005) and it also allows measuring changes in the accompanying locomotor activity. AAPA task training involves animals trained to move over a slowly rotating uniform circular arena, on which a prohibited sector is defined, entering which is punished by a mild footshock. A shock sector and its position can be determined solely by its relationship to distal orienting cues in the room (Stuchlik et al., 2008).
# This task is highly dependent upon hippocampal formation, with unilateral reversible ablation of this structure with TTX leading to avoidance deficit (Cimadevilla et al., 2001). Animals solving this task should walk in a direction opposite to arena rotation; otherwise it would be repeatedly brought to a fixed sector by arena rotation. We conducted 4 acquisition session of AAPA task, during which the sector location was always reinforced and remained stable throughout the training. Each session lasted 20 min.
# Control animals obtained saline intraperitoneally (i.p.) whilst experimental groups received subcutaneous (s.c.) injections of the compound from Example 9 at doses 1 mg/kg and 10 mg/kg (dissolved in cyclodextrin). Solution of compound from Example 9 (1 mg/2 ml or 10 mg/2 ml in cyclodextrin) was applied s.c. at a volume 2 ml/kg of body weight (b.w.). Intraperitonal application of dizocilpine (a non-competitive NMDA receptor antagonist; showing significant neuroprotective activity but exerting cognition-disturbing and psychotomimetic effects) was used as a positive control. Dizocilpine was applied at doses 0.1 mg/kg, 0.2 mg/kg and 0.3 mg/kg. It is worth noting that dizocilpine (albeit its experimental neuroprotective activity) is often used to model schizophrenia-like behaviors in […] and it has been repeatedly shown to exert a dose-dependent learning deficit and hyperlocomotion.
# rats [2] = test: AAPA task after MK-801 (animal model of schizophrenia); conditions: for locomotion activity in AAPA (total distance): vs control
# Description: The effect of compound from example 9 application on changes in behavior and locomotor activity in animal model of schizophrenia was monitored. Schizophrenia-like behavior in rats was induced by dizocilpine (MK-801) administration. […] was administered in doses of 0.001 mg/kg, 0.01 mg/kg, 0.1 mg/kg and 10 mg/kg. Spatial orientation and cognitive function of rats were assessed in active allothetic place avoidance task (AAPA).
# Schizophrenia-like behaviour in rats was induced by administration of dizocilpine (MK-801). Spatial navigation and cognitive functions of rats were assessed in active alothetic place avoidance task (AAPA). In addition, this task allows simultaneous assessment of potential differences in locomotory activity. The AAPA task requires rats moving on a continuously rotating (1 rpm) smooth metallic circular arena to avoid an unmarked place defined in the coordinates of the experimental room. The avoidance is reinforced by a mild electric foot-shock administered automatically upon entering the to-be avoided place.
# The AAPA task is highly dependent on hippocampal function, since even a unilateral inactivation of thstructure hippocampus impairs this behaviour. Animals have to actively and repeatedly move away from the to-be-avoided place otherwise they are brought there by the arena rotation. Each AAPA session lasts 20 min and 4 sessions were conducted over 4 consecutive days.
# Rats received 0.1 mg/kg MK-801 alone or co-administered with the compound from example 9 (dissolved in β-cyclodextrine) in doses of 0.001 mg/kg, 0.01 mg/kg, 0.1 mg/kg, and 10 mg/kg. Control animals received saline. […] It is for a common animal model of schizophrenia-like behaviour.
# The results are shown in FIGS. 21-23, where means and standard errors of the mean (S.E.M.) are represented for individual sessions. Statistic analysis was for better clarity stated always for the last session, when an asymptotic level of performance in control animals was reached.
# rats [3] = test: Prepulse inhibition of the acoustic startle response (sensorimotor gating); conditions: 1 and 10 mg/kg s.c., compound alone
# rats [4] = test: Prepulse inhibition in MK-801 animal model of schizophrenia
# Description: The effect of i.p. administration of the compound from example 9 at doses of 0.1 and 1 mg/kg on sensorimotor gating in prepulse inhibition (PPI) test was evaluated. All testing occurred within the startle chamber (SR-LAB, San Diego Instruments, USA), which consisted of a clear Plexiglas cylinder (8.2 cm diameter, 10×20 cm) that rested on a piezoelectric accelerometer inside a ventilated and illuminated chamber. The piezoelectric accelerometer detected and transduced motion within the cylinder. A high frequency loudspeaker inside the chamber (24 cm above the animal) produced both a background noise of 62 dB and the acoustic stimuli. All rats were initially tested in a short session (5 min acclimatization period plus 5 single stimuli; 120 dB strong) 2 days before the experiment.
# The background noise (62 dB) was presented alone for 5 min (acclimatization period) and then continued throughout the session. […] The PPI was measured as a difference between the average responses to the single pulse and prepulse-pulse trials, and was expressed as a percent of the PPI [100−(mean response for prepulse-pulse trials/startle response for single pulse trials)×100]. […]
# rats [5] = test: Spontaneous locomotor activity in the open-field test; conditions: 1 and 10 mg/kg s.c., 30 min before, 30 min session
# Description: Animals were tracked with Ethovision Pro system (Noldus, Netherlands) and total path traveled during this session was evaluated. The compound from Example 9 was applied subcutaneously (dissolved in cyclodextrin) 30 min prior to behavioral observations at doses 1 mg/kg a 10 mg/kg; control animals were injected with saline.
compound,measurement,setting,value
"CC(=O)[C@H]1CC[C@H]2[C@@H]3CC[C@@H]4C[C@H](OC(=O)[C@@H](N)CCC(=O)O)CC[C@]4(C)[C@H]3CC[C@]12C [Example 9, 20-Oxo-5β-pregnan-3α-yl L-glutamyl 1-ester]",maximum time avoided in AAPA,rats [1],did not significantly impaired cognitive performance compared to control animals
same,number of entrances into shock sector in AAPA,rats [1],neither of doses of compound from Example 9 caused worsening in this parameter
same,total distance traveled in AAPA (locomotor activity),rats [1]; 20-min sessions,failed to exhibit either decrease or increase in total distance compared to controls
same,MK-801-induced deficit in number of errors in AAPA,"rats [2]; Example 9 0.001, 0.01, 0.1 and 10 mg/kg + MK-801 0.1 mg/kg",reversed this deficits at all doses
same,locomotion activity in AAPA (total distance),"rats [2]; Example 9 0.001, 0.01 and 0.1 mg/kg + MK-801 0.1 mg/kg",showed neither increase nor decrease of locomotion activity
same,MK-801-induced deficit in maximum time of avoidance in AAPA,"rats [2]; Example 9 0.001, 0.01 and 10 mg/kg + MK-801 0.1 mg/kg",reversed this deficit
same,locomotion activity in AAPA (total distance),rats [2]; Example 9 10 mg/kg + MK-801 0.1 mg/kg,increased locomotor activity compared to controls
same,prepulse inhibition of the startle response,rats [3],none of the doses of the compound from Example 9 significantly altered this parameter
same,prepulse inhibition deficit induced by MK-801,rats [4]; Example 9 0.1 or 1 mg/kg i.p. co-administered with MK-801 0.1 mg/kg,blocked the exacerbating effect of MK-801
same,prepulse inhibition,"rats [4]; Example 9 alone, 0.1 and 1 mg/kg i.p.",had no influence on prepulse inhibition
same,total distance traveled in the open-field session (spontaneous locomotor activity),rats [5],did not significantly alter the spontaneous locomotor activity

# From patent US8575376B2, “Steroide anionic compounds, method of their production, usage and pharmaceutical preparation involving them” (Ustav Organicke Chemie A Biochemie Akademie Ved Ceske …, priority 2009, dated 2013)
